# PubChem BioAssay AID1963438 (Molecular Pharmacology Branch, DTP, NCI, 2024)
# Tested on: NCI-H510 multicellular tumor spheroid growth, % test/control
# Test: Anticancer human tumor NCI-H510 cell line growth inhibition [Asc];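 note: spheroids exposed to agents for 7 days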;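 for viability, T/C: 100% = DMSO vehicle control wells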
# Conditions: for IC50: curve of first compound; for viability, T/C: stronger effect = lower value
# Description: Multicellular complex tumor spheroid response to apoptosis pathway targeting inhibitors Alrizomadlin, Pelcitoclax, and Dasminapant in combination with a variety of drugs and investigational agents in selected tumor cell lines
# The MDM2 inhibitor alrizomadlin, the Bcl-2/Bcl-xL inhibitor pelcitoclax, and the IAPs inhibitor dasminapant were evaluated both individually and in combination with standard of care and investigational anticancer small molecules within a complex spheroid model of solid tumors. . Complex spheroids include a stromal component modeled by human endothelial cells (HUVEC) and fibroblasts modeled by human mesenchymal stem cells (MSCs). The concentration ranges selected for each drug and investigational agent were based upon clinically achievable concentrations if the clinical Cmax of the agent was known.
# Compounds. The drugs and investigational agents: alrizomadlin (APG-115; NSC831270), pelcitoclax (APG-1252; NSC835773), dasminapant (APG-1387;NSC834197), TAK-243 (NSC785004), copanlisib (NSC809693), olaparib (NSC753686), talazoparib (NSC767125), cobimetinib (NSC 768068), eltanexor (KPT-8602, NSC 794443), abemaciclib (NSC 768073), sotorasib (NSC818433), adagrasib (NSC 831453), MRTX-1133 (NSC 836407), Iadademestat (ORY1001, NSC 806812), and RMC-4630 (NSC839698), were obtained from the NCI Developmental Therapeutics Program Chemical Repository. The FDA-approved anticancer drug set is available from the Developmental Therapeutics Program at https://dtp.cancer.gov/organization/dscb/obtaining/available plates.htm. […] The stock solutions were prepared in dimethyl sulfoxide (DMSO, Sigma-Aldrich, St. Louis, MO, cat. D2650) at 800-fold the tested concentration and stored at -70 degrees C prior to their use. All drugs and investigational agents were tested over a range starting from a high concentration at or near the clinical Cmax and decreasing in half-log increments. If the clinical Cmax for an agent had not been determined, the highest concentration tested was 10 microM.
# The patient-derived cancer (PDC) cell lines include five colon adenocarcinomas: 186277-243-T-J2-PDC, 616215-338-R-J1-PDC, 439559-082-T-J2-PDC, 463943-066-T-J2-PDC, and 519858-162-T-J1-PDC; three pancreatic carcinomas: 323965-272-R-J2-PDC, 521955-158-R6-J3-PDC, and 521955-158-R2-J5-PDC; two uterine sarcomas: 327498-152-R-J2-PDC and 993429-296-R-J1-PDC; two rhabdomyosarcomas: 755483-174-R-J1-PDC and 772245-204-R-J1-PDC; two soft tissue sarcomas: 126254-015-R-J1-PDC and 494315-158-R-J1-PDC; two malignant fibrous histiocytomas: 317291-083-R-J1-PDC and 596521-263-R-J1-PDC; two breast carcinomas: 171881-019-R-J1-PDC and 885512-296-R-J2-PDC; and one ovarian carcinoma: 6556581-035-R-J-PDC were obtained from the NCI PDMR, (https://pdmr.cancer.gov). The established cell lines HSSY-2 synovial sarcoma (RRID:CVCL 8719), SYO-1 synovial sarcoma (RRID:CVCL_7146), MPNST malignant peripheral neural sheath tumor were obtained from the Sloan Kettering Institute. The following established cell lines were purchased from the American Type Culture Collection (ATCC, Manassas, VA), Sor the received from the NCI repository:, PANC-1 pancreatic carcinoma (CRL-1469, RRID:CVCL_0480), OVCAR-5 ovarian carcinoma (RRID:CVCL_1628), OVCAR-8 ovarian carcinoma (RRID:CVCL_1629), , MCF-7 breast carcinoma (CRL-12584, RRID:CVCL_0031), MDA-MB-231 breast carcinoma (CRL-12532, RRID:CVCL_0062), NCI-H1876 small cell lung carcinoma (CRL-5902, RRID:CVCL_1503), NCI-H510A small cell lung carcinoma (HTB-184, RRID:CVCL_1565), NCI-H1417 (CRL-5869, RRID:CVCL_1469), and NCI-H196 small cell lung carcinoma (CRL-5823, RRID:CVCL_1509). Dr. Peter Houghton (Greehey Children's Cancer Research Institute, University of Texas Health Science Center, San Antonio, TX) provided Rh-18 rhabdomyosarcoma (RRID:CVCL_1659). Pooled donor human umbilical vein endothelial cells (HUVEC, Lonza, cat. CC-2519) and human mesenchymal stem cells (hMSC, Lonza, cat. PT-2501) were purchased from Lonza (Walkersville, MD).
# Cell Culture. […]
compound,measurement,setting,value
C#Cc1c(F)ccc2cc(O)cc(-c3ncc4c(N5CC6CCC(C5)N6)nc(OCC56CCCN5CC(F)C6)nc4c3F)c12 (configuration not stated) + CNC(C)C(=O)NC1CN(S(=O)(=O)c2cccc(S(=O)(=O)N3CCC4CCC(C(=O)NC(c5ccccc5)c5ccccc5)N4C(=O)C(NC(=O)C(C)NC)C3)c2)CCC2CCC(C(=O)NC(c3ccccc3)c3ccccc3)N2C1=O,IC50,second compound 0.00316 µM,> 10 µM
same,IC50,second compound 0.01 µM,> 10 µM
same,IC50,second compound 0.0316 µM,> 10 µM
same,IC50,second compound 0.1 µM,> 10 µM
same,IC50,second compound 0.316 µM,> 10 µM
same,IC50,second compound 1 µM,> 10 µM
same,"viability, T/C","second compound 0.00316 µM, first compound 0.0316 µM",97.9%
same,"viability, T/C","second compound 0.00316 µM, first compound 0.1 µM",101%
same,"viability, T/C","second compound 0.00316 µM, first compound 0.316 µM",93.2%
same,"viability, T/C","second compound 0.00316 µM, first compound 1 µM",87.7%
same,"viability, T/C","second compound 0.00316 µM, first compound 3.16 µM",102%
same,"viability, T/C","second compound 0.00316 µM, first compound 10 µM",104%
same,"viability, T/C","second compound 0.01 µM, first compound 0.0316 µM",109%
same,"viability, T/C","second compound 0.01 µM, first compound 0.1 µM",98.3%
same,"viability, T/C","second compound 0.01 µM, first compound 0.316 µM",97.1%
same,"viability, T/C","second compound 0.01 µM, first compound 1 µM",99.7%
same,"viability, T/C","second compound 0.01 µM, first compound 3.16 µM",107%
same,"viability, T/C","second compound 0.01 µM, first compound 10 µM",93.3%
same,"viability, T/C","second compound 0.0316 µM, first compound 0.0316 µM",103%
same,"viability, T/C","second compound 0.0316 µM, first compound 0.1 µM",97.7%
same,"viability, T/C","second compound 0.0316 µM, first compound 0.316 µM",96.7%
same,"viability, T/C","second compound 0.0316 µM, first compound 1 µM",106%
same,"viability, T/C","second compound 0.0316 µM, first compound 3.16 µM",114%
same,"viability, T/C","second compound 0.0316 µM, first compound 10 µM",90.8%
same,"viability, T/C","second compound 0.1 µM, first compound 0.0316 µM",112%
same,"viability, T/C","second compound 0.1 µM, first compound 0.1 µM",103%
same,"viability, T/C","second compound 0.1 µM, first compound 0.316 µM",97.8%
same,"viability, T/C","second compound 0.1 µM, first compound 1 µM",97.8%
same,"viability, T/C","second compound 0.1 µM, first compound 3.16 µM",112%
same,"viability, T/C","second compound 0.1 µM, first compound 10 µM",96.6%
same,"viability, T/C","second compound 0.316 µM, first compound 0.0316 µM",114%
same,"viability, T/C","second compound 0.316 µM, first compound 0.1 µM",101%
same,"viability, T/C","second compound 0.316 µM, first compound 0.316 µM",104%
same,"viability, T/C","second compound 0.316 µM, first compound 1 µM",104%
same,"viability, T/C","second compound 0.316 µM, first compound 3.16 µM",97.7%
same,"viability, T/C","second compound 0.316 µM, first compound 10 µM",114%
same,"viability, T/C","second compound 1 µM, first compound 0.0316 µM",120%
same,"viability, T/C","second compound 1 µM, first compound 0.1 µM",107%
same,"viability, T/C","second compound 1 µM, first compound 0.316 µM",108%
same,"viability, T/C","second compound 1 µM, first compound 1 µM",95.7%
same,"viability, T/C","second compound 1 µM, first compound 3.16 µM",104%
same,"viability, T/C","second compound 1 µM, first compound 10 µM",114%
Cc1nc(N2CCC3(CC2)COC(C)C3N)c(CO)nc1Sc1ccnc(N)c1Cl (configuration not stated) + Cc1c(S(C)(=O)=O)c(-c2cc(F)cc(N3CCN(c4ccc(NS(=O)(=O)c5ccc(NC(CCN6CCC(C(=O)OCCCP(=O)(O)O)CC6)CSc6ccccc6)c(S(=O)(=O)C(F)(F)F)c5)cc4)CC3)c2)c(-c2ccc(Cl)cc2)n1C(C)C,IC50,second compound 0.1 µM,> 3 µM
same,IC50,second compound 0.316 µM,> 3 µM
same,IC50,second compound 1 µM,> 3 µM
same,IC50,second compound 3.16 µM,> 3 µM
same,IC50,second compound 10 µM,> 3 µM
same,"viability, T/C","second compound 0.1 µM, first compound 0.00949 µM",126%
same,"viability, T/C","second compound 0.1 µM, first compound 0.03 µM",122%
same,"viability, T/C","second compound 0.1 µM, first compound 0.0949 µM",112%
same,"viability, T/C","second compound 0.1 µM, first compound 0.3 µM",111%
same,"viability, T/C","second compound 0.1 µM, first compound 0.949 µM",128%
same,"viability, T/C","second compound 0.1 µM, first compound 3 µM",117%
same,"viability, T/C","second compound 0.316 µM, first compound 0.00949 µM",125%
same,"viability, T/C","second compound 0.316 µM, first compound 0.03 µM",130%
same,"viability, T/C","second compound 0.316 µM, first compound 0.0949 µM",136%
same,"viability, T/C","second compound 0.316 µM, first compound 0.3 µM",127%
same,"viability, T/C","second compound 0.316 µM, first compound 0.949 µM",111%
same,"viability, T/C","second compound 0.316 µM, first compound 3 µM",132%
same,"viability, T/C","second compound 1 µM, first compound 0.00949 µM",92.8%
same,"viability, T/C","second compound 1 µM, first compound 0.03 µM",139%
same,"viability, T/C","second compound 1 µM, first compound 0.0949 µM",122%
same,"viability, T/C","second compound 1 µM, first compound 0.3 µM",102%
same,"viability, T/C","second compound 1 µM, first compound 0.949 µM",118%
same,"viability, T/C","second compound 1 µM, first compound 3 µM",130%
same,"viability, T/C","second compound 3.16 µM, first compound 0.00949 µM",132%
same,"viability, T/C","second compound 3.16 µM, first compound 0.03 µM",128%
same,"viability, T/C","second compound 3.16 µM, first compound 0.0949 µM",137%
same,"viability, T/C","second compound 3.16 µM, first compound 0.3 µM",123%
same,"viability, T/C","second compound 3.16 µM, first compound 0.949 µM",119%
same,"viability, T/C","second compound 3.16 µM, first compound 3 µM",118%
same,"viability, T/C","second compound 10 µM, first compound 0.00949 µM",133%
same,"viability, T/C","second compound 10 µM, first compound 0.03 µM",123%
same,"viability, T/C","second compound 10 µM, first compound 0.0949 µM",125%
same,"viability, T/C","second compound 10 µM, first compound 0.3 µM",94%
same,"viability, T/C","second compound 10 µM, first compound 0.949 µM",114%
same,"viability, T/C","second compound 10 µM, first compound 3 µM",95.2%
